Measured values: the NIST ThermoML archive (doi:10.1016/j.fluid.2007.03.030)

Tests used:
[1] = refractive index (Na D-line) (dimensionless); conditions: 298.15 K; 101.33 kPa; Liquid; Standard Abbe refractometry
[2] = Liquid; for mass density: 298.15 K, 101.33 kPa; for vapor or sublimation pressure: Ebulliometric method (Recirculating still)

CCOCCO [2-ethoxyethan-1-ol]
Conditions	mass density [kg/m3]	refractive index
[1]	–	1.4062
[2]	925.38	–

[2]
Conditions	vapor or sublimation pressure [kPa]
345.63 K	9.97
349.72 K	11.98
353.3 K	13.98
356.42 K	15.98
359.27 K	17.98
363.08 K	20.96
365.34 K	22.97
367.46 K	24.98
370.33 K	27.95
373 K	30.94
375.49 K	33.97
378.51 K	37.93
381.26 K	41.98
383.78 K	45.88
386.12 K	49.91
388.87 K	54.89
391.39 K	59.83
393.83 K	64.82
396.01 K	69.65
398.1 K	74.57
400.12 K	79.47
402.11 K	84.74
403.97 K	89.84
405.76 K	94.91
407.95 K	101.3

CCCOCCC [dipropyl ether]
Conditions	mass density [kg/m3]	refractive index
[1]	–	1.3784
[2]	741.81	–

Conditions	vapor or sublimation pressure [kPa]
[2], 363.16 K	101.3

CCCO [propan-1-ol]
Conditions	mass density [kg/m3]	refractive index
[1]	–	1.3836
[2]	799.62	–

Conditions	vapor or sublimation pressure [kPa]
[2], 369.75 K	101.3
